Like-named read-outs stand apart in the source and are kept apart here.
Experiments:
[1] = test system: Osteogenic Precursor Cells in Bone Marrow; assay: Effects on the number of osteogenic precursor cells in bone marrow, Experiment 2 (FCFU formation after subcutaneous administration); type: in vivo; settings: 7 successive days, Lewis rat, N = 4
Description: (§1) After the invention compound was administered to a 7-weeks old Wistar or Lewis rat intraperitoneally (Experiment 1) or dorsi-subcutaneously (Experiment 2) for 7 successive days, the femurs and tibias were excised. Marrow cells were collected from the bones so obtained, followed by incubation in a 25-cm^2 culture flask for 7 days. For the incubation, the αMEM medium containing 15% fetal calf serum was used. Subsequent to giemsa or alkaline phosphatase staining, the number of fibroblast colony forming units on the culture flask was counted. The number of the fibroblast colony forming units (=FCFUs) is known to correlate with the in vitro ostogenesis. The total number of FCFUs and the number of FCFUs positive to alkaline phosphatase are shown in Table 1 and Table 2, respectively. Experiment 1:
Influence of the subcutaneous administration of
the invention compounds and testosterone for 7
successive days on the formation of FCFUs:
The number of FCFUs (after 7 days) (Lewis rat N = 4)

[2] = test system: Osteogenic Precursor Cells in Bone Marrow; assay: Effects on the number of osteogenic precursor cells in bone marrow, Experiment 1 (FCFU formation after intraperitoneal administration); type: in vivo; settings: 1 mg/kg intraperitoneal, 7 successive days; Wistar rat, N = 4; after 7 days incubation
Description: as §1
Influence of the intraperitoneal administration of
the invention compound at 1 mg/kg for 7 successive
days on the formation of FCFUs:
The number of FCFUs (after 7 days) (Wistar rat N = 4)

musculus levator ani = assay: Anabolic action, Hershberge method (1); type: in vivo, castrated Wistar male rat; settings: 0.3 mg/rat/day subcutaneous, 10 successive days; FIG. 8
Description: (§2) (1) In accordance with the Hershberge method, a castrated, 4-weeks old, Wistar, male rat (6 rats per group) was subcutaneously administered with 11-OH-Δ^4- A at 0.1-0.3 mg/rat/day for 10 successive days. Similarly, a vehicle (sesame oil) was administered to the Sham-operated group and a control group, and testosterone propionate (T.P.) was administered at 0.1 mg/rat/day as a positive control. On the day following the completion of the administration, the anterior lobe of prostate and the musculus levator ani were excised and weighed. From a change in the weight of the anterior lobe of the prostate and the musculus levator ani, androgenic action and anabolic action were studied.

[3] = test system: anterior lobe of prostate; assay: Androgenic action, Hershberge method (1); type: in vivo, castrated Wistar male rat; settings: 10 successive days, FIG. 8
Description: as §2

[4] = Improving effects on the bone mass reduction in postovariectomy osteoporosis (bone-salt amount by DXA); type: in vivo, female Wistar rat (ovariectomized); settings: three times a week, 3 months, FIGS. 3-6
Description: From a 7-weeks old female Wistar rat, the ovaria were both excised. Three months after that, the administration of a drug was started. As the drug, 11β-OH-^4 -A or dihydroepiandrosterone (DHEA) was dorsisubcutaneously administered three times a week, each, at 1 mg/kg. After the drug administration was continued for 3 months, the femurs and shinbones were collected and the bone-salt amount was measured at three places, that is, the proximal end, diaphysis and distal end. The measurements of the bone-salt amount were conducted using an Aloka DCS-600 model by dual energy X-ray absorptiometry (DXA).

osteocalcin = assay: Effects on serum osteocalcin (radioimmunoassay); type: in vivo, Wistar rat
Description: A 7-weeks old Wistar rat was intraperitoneally administered at 0.1 mg/kg with 11β-OH-Δ^4 -A for 7 successive days and the concentration of osteocalcin in the serum was measured by radioimmunoassay.

Acute toxicity test = settings: in vivo, sc; subcutaneous, Wistar rat
Description: An acute toxicity test of the invention compound 11β-OH-Δ^4 -A was conducted in the following manner.
To a Wistar rat, 11β-OH-Δ^4 -A was subcutaneously administered in an amount considered to be an intoxicating dose. The conditions of the rat were observed and at the same time, the LD50 value was determined.

[5] = test system: osteogenic precursor cells; assay: Improving effects on the osteogenesis depression in postovariectomy osteoporosis (FCFU forming ability); type: in vivo, female Wistar rat (ovariectomized)
Description: From a 7-weeks old female Wistar rat, the ovaria were both excised and three months after that, administration of a drug was started. As the drug, 11β-OH-Δ^4 -A, was administered dorsi-subcutaneously three times a week, each, at 0.1 mg/kg or 1 mg/kg. Subsequent to the administration of the drug for 1 month, the femurs and shinbones were collected. From the right femur and both the shinbones, osteoblasts were collected and the formation of colonies (FCFUs) of osteogenic precursor cells was observed.

[6] = background report, cited from earlier work

C[C@]12C=CC(=O)C=C1CC[C@@H]1[C@@H]2[C@@H](O)C[C@]2(C)C(=O)CC[C@@H]12 [11β-OH-Δ^1,4 -A, 11β-hydroxy-1,4-androstadiene-3,17-dione]
The number of FCFUs positive for alkaline phosphatase ([1]; 0.1 mg/kg subcutaneous): 85 ± 11
The total FCFU number ([1]; 0.1 mg/kg subcutaneous): 178 ± 20
The number of FCFUs positive for alkaline phosphatase ([1]; 1 mg/kg subcutaneous): 117 ± 12
The total FCFU number ([1]; 1 mg/kg subcutaneous): 217 ± 22

C[C@]12CCC(=O)C=C1CC[C@@H]1[C@@H]2[C@@H](O)C[C@]2(C)C(=O)CC[C@@H]12 [11β-OH-Δ^4 -A, 11β-hydroxy-4-androstene-3,17-dione]
The number of FCFUs positive for alkaline phosphatase [2]: 40 ± 11
The total FCFU number [2]: 160 ± 35
weight of the musculus levator ani (anabolic action) (musculus levator ani): An increase in the weight of the musculus levator ani
weight of the prostate ([3]; 0.1-0.3 mg/rat/day (0.6-1.8 mg/kg/day) subcutaneous): a significant increase in the weight of the prostate
Androgenic action ([3]; 0.1-0.3 mg/rat/day subcutaneous): very weak
bone-salt amount at places of the femur ([4]; 1 mg/kg dorsi-subcutaneous): recovered to similar levels to those of the Sham-operated rat
bone-salt effects compared with dihydroepiandrosterone ([4]; 1 mg/kg each, dorsi-subcutaneous): more potent than those of dihydroepiandrosterone
Serum osteocalcin concentration (osteocalcin; 0.1 mg/kg intraperitoneal, 7 successive days): 72.6 ± 2.7 ng/mL
Serum osteocalcin concentration (osteocalcin; 5 mg/kg): 75.5 ± 1.0 ng/mL
concentration of osteocalcin (in words) (osteocalcin; successive administration): increase the concentration of osteocalcin
The number of FCFUs positive for alkaline phosphatase ([1]; 0.1 mg/kg subcutaneous): 96 ± 16
The total FCFU number ([1]; 0.1 mg/kg subcutaneous): 180 ± 9
The number of FCFUs positive for alkaline phosphatase ([1]; 1 mg/kg subcutaneous): 128 ± 19
The total FCFU number ([1]; 1 mg/kg subcutaneous): 189 ± 26
LD50 (Acute toxicity test): ≥ 1000 mg/kg
osteogenesis depression observed after the ovariectomy ([5]; 0.1 mg/kg thrice a week for a month): successfully normalized back the osteogenesis depression observed after the ovariectomy
FCFU formation ([5]; 0.1 mg/kg, dorsi-subcutaneous, three times a week, 1 month, FIG. 2): a marked increase in the FCFU formation

C[C@]12CC[C@H]3[C@@H](CCC4=CC(=O)CC[C@@]43C)[C@@H]1CC[C@@H]2O [Testosterone, reference compound]
The number of FCFUs positive for alkaline phosphatase ([1]; 1 mg/kg subcutaneous): 62 ± 5
The total FCFU number ([1]; 1 mg/kg subcutaneous): 149 ± 5

C[C@]12CC[C@H](O)CC1=CC[C@@H]1[C@@H]2CC[C@]2(C)C(=O)CC[C@@H]12 [dihydroepiandrosterone (DHEA), dihydroepiandrosterone]
effect on bone mass of ovariectomized animals [6]: extremely weak
effect on bone mass of ovariectomized animals ([6]; listed as dihydroepiandrosterone): bone-salt improving effects on the ovariectomized rat

estrogen
effect on bone mass of ovariectomized animals [6]: evident curative effect for a decrease in the bone mass of an ovariectomized animal

— US5565444A, “Osteogenesis promoter and osteoporosis remedy” (LTT Institute Co., Ltd., priority 1993, dated 1996)
